This test relates to HIV-1 (strain IIIB). The experiment in a line: MT4 Cell Antiviral Assay. Type of test: cell-based. The following applies: Human immunodeficiency virus 1, 120 h; HIV-1 strain IIIB in MT4 cells, 5 days, Cell Titer-Glo; 50% decrease in HIV-induced cytopathic effect. The protocol: Antiviral HIV activity and compound-induced cytotoxicity were measured in parallel based on a modified protocol of the propidium iodide based procedure in the human T-cell lymphotropic virus transformed cell line MT4. Aliquots of the test compounds were serially diluted in DMSO plated in 96-well plates. Exponentially growing MT4 cells were harvested and pelleted. Cell pellets were resuspended in fresh medium (RPMI 1640, 10% FCS, and gentamycin. Cell aliquots were infected by the addition of HIV-1 (strain IIIB) diluted to give a viral multiplicity of infection of 300×TCID50/million cells. A similar cell aliquot was diluted with medium to provide a mock-infected control. Cell infection was allowed to proceed for 1 hr at 37° C. in a tissue culture incubator with humidified 5% CO2 atmosphere. After the 1 hr incubation the virus/cell suspensions were diluted with fresh medium, and added to each well of the plate containing pre-diluted compound. Plates were then placed in a tissue culture incubator with humidified 5% CO2 for 5 days. […] The plates were analyzed in an automated plate reader for luminescence.assay. The control and standard used was efavirinz tested over a concentration range of 0.001 to 1 μM in every assay. The expected range of IC50 values for efavirinz is 0.1 to 1 nM.
The antiviral effect of a test compound is reported as an IC50, i.e. the inhibitory concentration that would produce a 50% decrease in the HIV-induced cytopathic effect. This effect is measured by the amount of test compound required to restore 50% of the cell growth of HIV-infected MT4 cells, compared to uninfected MT4 cell controls. IC50 was calculated by RoboSage, Automated Curve Fitting Program.
For each assay plate, the results (of wells containing uninfected cells or infected cells with no compound were averaged, respectively. For measurements of compound-induced cytotoxicty, results from wells containing various compound concentrations and uninfected cells were compared to the average of uninfected cells without compound treatment. Percent of cells remaining is determined by the following formula: Percent of cells remaining=(compound-treated uninfected cells/untreated uninfected cells)×100.
A level of percent of cells remaining of 79% or less indicates a significant level of direct compound-induced cytotoxicity for the compound at that concentration. When this condition occurs the results from the compound-treated infected wells at this concentration are not included in the calculation of IC50.
For measurements of compound antiviral activity, results from wells containing various compound concentrations and infected cells are compared to the average of uninfected and infected cells without compound treatment. Percent inhibition of virus is determined by the following formula: Percent inhibition of virus=(1−((ave. untreated uninfected cells−treated infected cells)/(ave. untreated uninfected cells−ave. untreated infected cells)))×100
Background: ATP-based viability assays read luminescence as a measure of living cells.
In general, IC50 refers to the concentration that gives 50% inhibition. Consider `CC(C)C1=C2[C@H]3CC[C@@H]4[C@@]5(C)CC[C@H](OC(=O)CC(C)(C)C(=O)O)C(C)(C)[C@@H]5CC[C@@]4(C)[C@]3(C)CC[C@@]2(/C=C/C(=O)N[C@@H](C)c2ncccn2)CC1=O` [Example 11, 4-(((3aS,5aR,5bR,7aR,9S,11aR,11bR,13aS)-1-isopropyl-5a,5b,8,8,11a-pentamethyl-2-oxo-3a-((E)-3-oxo-3-(((S)-1-(pyrimidin-2-yl)ethyl)amino)prop-1-en-1-yl)-3,3a,4,5,5a,5b,6,7,7a,8,9,10,11,11a,11b,12,13,13a-octadecahydro-2H-cyclopenta[a]chrysen-9-yl)oxy)-2,2-dimethyl-4-oxobutanoic acid], for which the IC50 was 10 to 250 nM.

`CC(C)C1=C2[C@H]3CC[C@@H]4[C@@]5(C)CC[C@H](OC(=O)CC(C)(C)C(=O)O)C(C)(C)[C@@H]5CC[C@@]4(C)[C@]3(C)CC[C@@]2(/C=C/C(=O)NC2(c3ccccn3)CC2)CC1=O` [Example 12, 4-(((3aS,5aR,5bR,7aR,9S,11aR,11bR,13aS)-1-Isopropyl-5a,5b,8,8,11a-pentamethyl-2-oxo-3a-((E)-3-oxo-3-((1-(pyridin-2-yl)cyclopropyl)amino)prop-1-en-1-yl)-3,3a,4,5,5a,5b,6,7,7a,8,9,10,11,11a,11b,12,13,13a-octadecahydro-2H-cyclopenta[a]chrysen-9-yl)oxy)-2,2-dimethyl-4-oxobutanoic acid] came in with an IC50 of less than 10 nM.

For the compound `CC(C)C1=C2[C@H]3CC[C@@H]4[C@@]5(C)CC[C@H](OC(=O)CC(C)(C)C(=O)O)C(C)(C)[C@@H]5CC[C@@]4(C)[C@]3(C)CC[C@@]2(/C=C/C(=O)NC2(c3ncccn3)CC2)CC1=O` [Example 13, 4-(((3aS,5aR,5bR,7aR,9S,11aR,11bR,13aS)-1-isopropyl-5a,5b,8,8,11a-pentamethyl-2-oxo-3a-((E)-3-oxo-3-((1-(pyrimidin-2-yl)cyclopropyl)amino)prop-1-en-1-yl)-3,3a,4,5,5a,5b,6,7,7a,8,9,10,11,11a,11b,12,13,13a-octadecahydro-2H-cyclopenta[a]chrysen-9-yl)oxy)-2,2-dimethyl-4-oxobutanoic acid], the IC50 was in the range of 10 to 250 nM.

The compound `CC(C)C1=C2[C@H]3CC[C@@H]4[C@@]5(C)CC[C@H](OC(=O)CC(C)(C)C(=O)O)C(C)(C)[C@@H]5CC[C@@]4(C)[C@]3(C)CC[C@@]2(/C=C/C(=O)N[C@H](C)c2ccccn2)CC1=O` [Example 14, 4-(((3aS,5aR,5bR,7aR,9S,11aR,11bR,13aS)-1-Isopropyl-5a,5b,8,8,11a-pentamethyl-2-oxo-3a-((E)-3-oxo-3-(((R)-1-(pyridin-2-yl)ethyl)amino)prop-1-en-1-yl)-3,3a,4,5,5a,5b,6,7,7a,8,9,10,11,11a,11b,12,13,13a-octadecahydro-2H-cyclopenta[a]chrysen-9-yl)oxy)-2,2-dimethyl-4-oxobutanoic acid] had an IC50 of 10 to 250 nM.

On to `CC(C)C1=C2[C@H]3CC[C@@H]4[C@@]5(C)CC[C@H](OC(=O)CC(C)(C)C(=O)O)C(C)(C)[C@@H]5CC[C@@]4(C)[C@]3(C)CC[C@@]2(/C=C/C(=O)N[C@@H](C)c2ccccn2)CC1=O` [Example 15, 4-(((3aS,5aR,5bR,7aR,9S,11aR,11bR,13aS)-1-Isopropyl-5a,5b,8,8,11a-pentamethyl-2-oxo-3a-((E)-3-oxo-3-(((S)-1-(pyridin-2-yl)ethyl)amino)prop-1-en-1-yl)-3,3a,4,5,5a,5b,6,7,7a,8,9,10,11,11a,11b,12,13,13a-octadecahydro-2H-cyclopenta[a]chrysen-9-yl)oxy)-2,2-dimethyl-4-oxobutanoic acid], for which the IC50 fell in the range of 10 to 250 nM.

Consider `CC(C)C1=C2[C@H]3CC[C@@H]4[C@@]5(C)CC[C@H](OC(=O)CC(C)(C)C(=O)O)C(C)(C)[C@@H]5CC[C@@]4(C)[C@]3(C)CC[C@@]2(/C=C/C(=O)O)CC1=O` [Example 16, 4-(((3aS,5aR,5bR,7aR,9S,11aR,11bR,13aS)-3a-((E)-2-Carboxyvinyl)-1-isopropyl-5a,5b,8,8,11a-pentamethyl-2-oxo-3,3a,4,5,5a,5b,6,7,7a,8,9,10,11,11a,11b,12,13,13a-octadecahydro-2H-cyclopenta[a]chrysen-9-yl)oxy)-2,2-dimethyl-4-oxobutanoic acid], for which the IC50 is 250 to 10000 nM.

For the compound `CC(C)C1=C2[C@H]3CC[C@@H]4[C@@]5(C)CC[C@H](OC(=O)CC(C)(C)C(=O)O)C(C)(C)[C@@H]5CC[C@@]4(C)[C@]3(C)CC[C@@]2(/C=C/C(=O)Nc2ccc(F)cc2)CC1=O` [Example 17, 4-(((3aS,5aR,5bR,7aR,9S,11aR,11bR,13aS)-3a-((E)-3-((4-Fluorophenyl)amino)-3-oxoprop-1-en-1-yl)-1-isopropyl-5a,5b,8,8,11a-pentamethyl-2-oxo-3,3a,4,5,5a,5b,6,7,7a,8,9,10,11,11a,11b,12,13,13a-octadecahydro-2H-cyclopenta[a]chrysen-9-yl)oxy)-2,2-dimethyl-4-oxobutanoic acid], the IC50 was 10 to 250 nM.

In the case of `CC(C)C1=C2[C@H]3CC[C@@H]4[C@@]5(C)CC[C@H](OC(=O)CC(C)(C)C(=O)O)C(C)(C)[C@@H]5CC[C@@]4(C)[C@]3(C)CC[C@@]2(/C=C/C(=O)Nc2ccc(Cl)cn2)CC1=O` [Example 18, 4-(((3aS,5aR,5bR,7aR,9S,11aR,11bR,13aS)-3a-((E)-3-((5-Chloropyridin-2-yl)amino)-3-oxoprop-1-en-1-yl)-1-isopropyl-5a,5b,8,8,11a-pentamethyl-2-oxo-3,3a,4,5,5a,5b,6,7,7a,8,9,10,11,11a,11b,12,13,13a-octadecahydro-2H-cyclopenta[a]chrysen-9-yl)oxy)-2,2-dimethyl-4-oxobutanoic acid], the IC50 was 10 to 250 nM.

Regarding `CC(C)C1=C2[C@H]3CC[C@@H]4[C@@]5(C)CC[C@H](OC(=O)CC(C)(C)C(=O)O)C(C)(C)[C@@H]5CC[C@@]4(C)[C@]3(C)CC[C@@]2(/C=C/C(=O)Nc2ccccn2)CC1=O` [Example 19], the IC50 lay in the range of 10 to 250 nM.

The compound `CC(C)C1=C2[C@H]3CC[C@@H]4[C@@]5(C)CC[C@H](OC(=O)CC(C)(C)C(=O)O)C(C)(C)[C@@H]5CC[C@@]4(C)[C@]3(C)CC[C@@]2(/C=C/C(=O)NC2(c3ccccc3Cl)CC2)CC1=O` [Example 20, 4-(((3aS,5aR,5bR,7aR,9S,11aR,11bR,13aS)-3a-((E)-3-((1-(2-Chlorophenyl)cyclopropyl)amino)-3-oxoprop-1-en-1-yl)-1-isopropyl-5a,5b,8,8,11a-pentamethyl-2-oxo-3,3a,4,5,5a,5b,6,7,7a,8,9,10,11,11a,11b,12,13,13a-octadecahydro-2H-cyclopenta[a]chrysen-9-yl)oxy)-2,2-dimethyl-4-oxobutanoic acid] came in with an IC50 of 10 to 250 nM.

Compound `Cc1ccc(NC(=O)/C=C/[C@@]23CC[C@]4(C)[C@H](CC[C@@H]5[C@@]6(C)CC[C@H](OC(=O)CC(C)(C)C(=O)O)C(C)(C)[C@@H]6CC[C@]54C)C2=C(C(C)C)C(=O)C3)cc1` [Example 21, 4-(((3aS,5aR,5bR,7aR,9S,11aR,11bR,13aS)-1-Isopropyl-5a,5b,8,8,11a-pentamethyl-2-oxo-3a-((E)-3-oxo-3-(p-tolylamino)prop-1-en-1-yl)-3,3a,4,5,5a,5b,6,7,7a,8,9,10,11,11a,11b,12,13,13a-octadecahydro-2H-cyclopenta[a]chrysen-9-yl)oxy)-2,2-dimethyl-4-oxobutanoic acid] gave an IC50 of 10 to 250 nM.

(Values after patent US9340513B2, “Propenoate derivatives of betulin” (GlaxoSmithKline LLC, priority 2011, dated 2016).)
